Data as given in publication PMC12118597 (Science Advances, 2025).
Values joined by “and” are separate entries in the source; they are usually repeats but may differ in a detail not shown here. Equal values may be shown once. “Also recorded” adds a separate entry of the source. Read-outs that look alike come from different tables or passages of the source.

Key:
[1] = biological target: T1, SARS-CoV-2 NSP3 macrodomain (Mac1) (Severe acute respiratory syndrome coronavirus 2, UniProt P0DTD1); assay: biochemical; assay type: binding
[2] = biological target: T1, SARS-CoV-2 NSP3 macrodomain (Mac1); assay type: binding; details: for Total number of conformations: ligand conformations modeled in the crystal structure; for 2*(1-BDC) (%): occupancy estimate from PanDDA; for 1-BDC (PanDDA run, DMSO background map): event 1
[3] = HTRF binding curve, SARS-CoV-2 Mac1
[4] = SARS CoV-2 macrodomain HTRF assay, dose-response
[5] = PanDDA background density correction factor
[6] = crystal soak 10 mM, P43 crystal form
[7] = ligand-bound crystal structure obtained (TRUE)
[8] = refined crystallographic occupancy
[9] = site occupied in X-ray crystal structure
[10] = PanDDA background density correction, 1-BDC
[11] = crystal soak, 10 mM soak concentration, P43 crystal form
[12] = crystal soak concentration 10 mM
[13] = crystal soak concentration 10 mM, P43 crystals
[14] = soak concentration 10 mM, P43 crystals

| SMILES | Hill slope [1, 3] | Hill slope [1, 4] | X-ray crystal structure [2, 7] | 2*(1-BDC) (%) [2] [%] | Binding site [2, 9] | 1-BDC [2, 10] | Hit (PanDDA run, DMSO background map) ([2]; crystal soak 10 mM) | 1-BDC (PanDDA run, DMSO background map) ([2]; crystal soak 10 mM) | Hit (PanDDA run, overall) [2, 11] | Refined ligand occupancy (%) ([2]; crystallographic refinement) | further results |
| --- | --- | --- | --- | --- | --- | --- | --- | --- | --- | --- | --- |
| O=C(O)C(F)(F)F.OC1([C@H]2CCCN2c2ncnc3[nH]ccc23)Cc2ccccc2C1 [AVI-3731] | 1.1 | 1.1 | TRUE | 40 | Adenosine | – | – | – | – | – | inhibition at 200 µM ([1]; SARS CoV-2 macrodomain HTRF assay, single dose concentration 200 μM, read-out: Average % competition): 100%; inhibition at 200 µM ([1]; compound at 200 μM, mean of three to four technical replicates, read-out: % competition at 200 μM (preliminary HTRF screen)): 100%; Occupancy difference (refined_occupancy - 2*(1-BDC)) [2]: 0; 1-BDC [2, 5]: 0.2; PanDDA run, overall: Hit [2, 6]: TRUE; PanDDA run, DMSO background map: 1-BDC ([2]; crystal soak 10 mM): 0.2; PanDDA run, DMSO background map: Hit ([2]; crystal soak 10 mM): TRUE; Total number of conformations [2]: 1; Refined ligand occupancy (%) [2, 8]: 40% |
| C[C@H]1CC[C@H](CO)N(c2ncnc3[nH]ccc23)C1 [AVI-4063] | 1.1 | 1.1 | TRUE | 32 | Adenosine | 0.16 | TRUE | 0.21 and 0.16 | TRUE | 50 | – |
| CC1(C)CCC(O)(CNc2ncnc3[nH]ccc23)CC1 [AVI-4310] | 1.3 | 1.3 | – | – | – | – | TRUE | 0.14 | TRUE | – | Modeling comment (ligand density) ([2]; crystal soak 10 mM, PanDDA run, overall): Weak density, not modeled |
| OC1(CNc2ncnc3[nH]ccc23)CCCCC1 [AVI-6217] | 1.1 | 1.1 | TRUE | 44 | Adenosine | 0.22 | – | – | – | 60 | – |
| CC(C)(O)C1C2CCC2CN1c1ncnc2[nH]ccc12 (stereo not drawn) [AVI-4128] | 1.2 | 1.2 | TRUE | 40 | Adenosine | 0.2 | – | – | – | 60 | Hit (PanDDA run, DMSO background map) [2, 12]: TRUE; Modeled (PanDDA run, DMSO background map) [2, 12]: TRUE; 1-BDC (PanDDA run, DMSO background map) [2, 12]: 0.27 and 0.2; Hit (PanDDA run, overall) [2, 13]: TRUE; Modeled (PanDDA run, overall) [2, 13]: TRUE; Modeling comment (PanDDA run, overall) [2, 13]: Duplicate, not modeled; also recorded: Weak density for open conformation |
| CC1CCCC(O)(CNc2ncnc3[nH]ccc23)C1 (stereo not drawn) [AVI-4307] | 1.0 | 1.0 | TRUE | 34 | Adenosine | 0.17 | TRUE | 0.17 | TRUE | 34 | – |
| CC(O)C1CCCN1c1ncnc2[nH]ccc12 (stereo not drawn) [AVI-4062] | 1.1 | 1.1 | TRUE | 52 | Adenosine | 0.26 | TRUE | 0.26 and 0.29 | TRUE | 70 | – |
| OCC1C=CCCN1c1ncnc2[nH]ccc12 (stereo not drawn) [AVI-5998] | 1.2 | 1.2 | TRUE | 38 | Adenosine | 0.19 | – | – | – | 38 | – |
| CC(C)(O)C1C2CCCCC2CN1c1ncnc2[nH]ccc12 (stereo not drawn) [AVI-4127] | 1.3 | 1.3 | TRUE | 50 | Adenosine | 0.25 | – | – | – | 60 | Hit (PanDDA run, DMSO background map) [2, 12]: TRUE; Modeled (PanDDA run, DMSO background map) [2, 12]: TRUE; 1-BDC (PanDDA run, DMSO background map) [2, 12]: 0.23 and 0.25; Hit (PanDDA run, overall) [2, 13]: TRUE; Modeled (PanDDA run, overall) [2, 13]: TRUE; Modeling comment (PanDDA run, overall) [2, 13]: Duplicate, not modeled; Phe132 loop open state ([2]; open state of Phe132 loop seen in the ligand-bound structure): TRUE |
| Cc1c[nH]c2ncnc(NCC3(O)CCC(C)CC3)c12 (stereo not drawn) [AVI-4331] | 1.2 | 1.2 | TRUE | 54 | Adenosine | 0.27 | TRUE | 0.27 | – | 54 | Hit (PanDDA run, overall) [2, 6]: TRUE; Hit (PanDDA run, DMSO background map) [2, 12]: TRUE; 1-BDC (PanDDA run, DMSO background map) [2, 12]: 0.23; Hit (PanDDA run, overall) [2, 13]: TRUE; Modeling comment (PanDDA run, overall) [2, 13]: Duplicate, not modeled |
| CC1CC(C(=O)O)CN(C(=O)CSc2ccc(O)cc2)C1 (stereo not drawn) [AVI-334] | – | – | – | – | – | – | – | – | – | – | Average % competition ([1]; single dose concentration 200 μM (TS-FrankenROCS series)): 25%; PanDDA run, DMSO background map: 1-BDC ([2]; soak concentration 10 mM): 0.07; PanDDA run, DMSO background map: Hit ([2]; soak concentration 10 mM): TRUE; PanDDA run, overall: Hit [2, 14]: TRUE; PanDDA run, overall: Modeling comment [2, 14]: Weak density, not modeled |
| Cc1c[nH]c2ncnc(NCC3(O)CCC(C)(C)CC3)c12 [AVI-4330] | 1.3 | 1.3 | – | – | – | – | – | – | – | – | Hit (PanDDA run, DMSO background map) [2, 12]: TRUE; 1-BDC (PanDDA run, DMSO background map) [2, 12]: 0.11; Hit (PanDDA run, overall) [2, 13]: TRUE; Modeling comment (PanDDA run, overall) [2, 13]: Weak density, not modeled |
| CCC(CC)(CO)Nc1ncnc2[nH]ccc12 [AVI-3695] | 1.3 | 1.3 | – | 24 | – | – | – | – | – | – | Occupancy difference (refined_occupancy - 2*(1-BDC)) [2]: 6; 1-BDC [2, 5]: 0.12; X-ray crystal structure ([2]; TRUE = crystal structure with ligand obtained): TRUE; PanDDA run, overall: Hit [2, 6]: TRUE; PanDDA run, overall: Modeled [2, 6]: TRUE; PanDDA run, DMSO background map: 1-BDC ([2]; crystal soak 10 mM): 0.12; PanDDA run, DMSO background map: Hit ([2]; crystal soak 10 mM): TRUE; Total number of conformations [2]: 2; Refined ligand occupancy (%) [2, 8]: 30%; Binding site ([2]; site of ligand in X-ray crystal structure): Adenosine |
| OC1(CNc2ncnc3[nH]ccc23)CCSCC1 [AVI-4319] | 1.2 | 1.2 | TRUE | 32 | Adenosine | 0.16 | – | – | – | 32 | – |
| OC1(CNc2ncnc3[nH]ccc23)CCCSC1 (stereo not drawn) [AVI-4322] | 1.3 | 1.3 | TRUE | 42 | Adenosine | 0.21 | – | – | – | 42 | – |
| OC1(CNc2ncnc3[nH]ccc23)CCC(F)(F)CC1 [AVI-4308] | 1.2 | 1.2 | TRUE | 30 | Adenosine | 0.15 | TRUE | 0.15 | TRUE | 30 | – |
